The source made the active and inactive calls. No cut-off for these calls is given here.
Tests used:
T47D [1] = assay: Induction of morphology changes in human T47D cells expressing human progesterone receptor assessed as increase in cell height by confocal microscopy; type: functional, cell-based
T47D [2] = assay: Reduction in cell proliferation of human T47D cells expressing human progesterone receptor by FACS method; type: functional, cell-based
T47D [3] = assay: Inhibition of human progesterone receptor B protein expression transfected in human T47D cells at 200 nM by Western blot; type: functional
T47D [4] = assay: Inhibition of human progesterone receptor A protein expression transfected in human T47D cells at 200 nM by Western blot; type: functional

Q: With `Cc1cn([C@H]2C[C@H](OP(=O)(O)OC[C@H]3O[C@@H](n4cc(C)c(=O)[nH]c4=O)C[C@@H]3O)[C@@H](COP(=O)(O)O[C@H]3[C@@H](O)[C@H](n4ccc(=O)[nH]c4=O)O[C@@H]3COP(=O)(O)O[C@H]3[C@@H](O)[C@H](n4ccc(N)nc4=O)O[C@@H]3COP(=O)(O)O[C@H]3[C@@H](O)[C@H](n4cnc5c(N)ncnc54)O[C@@H]3COP(=O)(O)O[C@H]3C[C@H](n4cnc5c(N)ncnc54)O[C@@H]3COP(=O)(O)O[C@H]3[C@@H](O)[C@H](n4ccc(N)nc4=O)O[C@@H]3COP(=O)(O)O[C@H]3C[C@H](n4cnc5c(N)ncnc54)O[C@@H]3COP(=O)(O)O[C@H]3[C@@H](O)[C@H](N4CC=C(N)NC4=O)O[C@@H]3COP(=O)(O)O[C@H]3[C@@H](O)[C@H](n4cnc5c(=O)[nH]c(N)nc54)O[C@@H]3COP(=O)(O)O[C@H]3[C@@H](O)[C@H](n4cnc5c(N)ncnc54)O[C@@H]3COP(=O)(O)O[C@H]3[C@@H](O)[C@H](N4CC=C(N)NC4=O)O[C@@H]3COP(=O)(O)O[C@H]3[C@@H](O)[C@H](n4cnc5c(=O)[nH]c(N)nc54)O[C@@H]3COP(=O)(O)O[C@H]3[C@@H](O)[C@H](n4cnc5c(=O)[nH]c(N)nc54)O[C@@H]3COP(=O)(O)O[C@H]3[C@@H](O)[C@H](n4cnc5c(=O)[nH]c(N)nc54)O[C@@H]3COP(=O)(O)O[C@H]3C[C@H](n4cnc5c(N)ncnc54)O[C@@H]3COP(=O)(O)O[C@H]3[C@@H](O)[C@H](n4cnc5c(N)ncnc54)O[C@@H]3COP(=O)(O)O[C@H]3[C@@H](O)[C@H](n4cnc5c(=O)[nH]c(N)nc54)O[C@@H]3COP(=O)(O)O[C@H]3[C@@H](O)[C@H](n4cnc5c(=O)[nH]c(N)nc54)O[C@@H]3COP(=O)(O)O[C@H]3[C@@H](O)[C@H](n4ccc(=O)[nH]c4=O)O[C@@H]3COP(=O)(O)O[C@H]3[C@@H](O)[C@H](n4cnc5c(N)ncnc54)O[C@@H]3CO)O2)c(=O)[nH]c1=O` as the compound, how does the Activity (T47D [1]) read?
A: Active

Q: What about the Activity (T47D [2]) of the same compound?
A: Active

Q: For `Cc1cn(CC(=O)N(CCNCC(=O)N(CCNC(=O)CN(CCNC(=O)CN(CCNC(=O)CN(CCNC(=O)CN(CCNC(=O)CN(CCNC(=O)CN(CCNC(=O)CN(CCNC(=O)CN(CCNC(=O)CN(CCNC(=O)CN(CCNC(=O)CN(CCNC(=O)CNC(=O)[C@@H](N)CCCCN)C(=O)Cn2cc(C)c(=O)[nH]c2=O)C(=O)Cn2cnc3nc(N)[nH]c(=O)c32)C(=O)Cn2c(N)ccnc2=O)C(=O)Cn2c(N)ccnc2=O)C(=O)Cn2c(N)ccnc2=O)C(=O)Cn2c(N)ccnc2=O)C(=O)Cn2c(N)ccnc2=O)C(=O)Cn2cnc3c(N)ncnc32)C(=O)Cn2cnc3nc(N)[nH]c(=O)c32)C(=O)Cn2cnc3c(N)ncnc32)C(=O)Cn2c(N)ccnc2=O)C(=O)Cn2cnc3c(N)ncnc32)CC(=O)NCCN(CC(=O)NCCN(CC(=O)NCCN(CC(=O)NCCN(CC(=O)NCCN(CC(=O)NCCN(CC(=O)N[C@@H](CCCCN)C(=O)O)C(=O)Cn2c(N)ccnc2=O)C(=O)Cn2cnc3nc(N)[nH]c(=O)c32)C(=O)Cn2cnc3nc(N)[nH]c(=O)c32)C(=O)Cn2cc(C)c(=O)[nH]c2=O)C(=O)Cn2c(N)ccnc2=O)C(=O)Cn2cnc3nc(N)[nH]c(=O)c32)c(=O)[nH]c1=O`, which inhibition (T47D [3]) is on record?
A: inactive

Q: What about the inhibition (T47D [4]) of the same compound?
A: inactive
